This passage reports relative viability results from the supplement of paper PMC10307832.

What all share (experiment): relative viability (nuclei count vs DMSO), 5 days (fraction); higher = more cells survive
Compound in test [1]: CN[C@@H]1C[C@H]2O[C@@](C)([C@@H]1OC)n1c3ccccc3c3c4c(c5c6ccccc6n2c5c31)C(=O)NC4 [Staurosporine] + CC(=O)c1c(C)c2cnc(Nc3ccc(N4CCNCC4)cn3)nc2n(C2CCCC2)c1=O [Palbociclib] (partner 0.5 µM)
In outline: (§1)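 Cells from lung cancer lines were seeded into 1536-well plates and, one day later, dosed by pin tool. Treatments were either a single drug or a fixed dose of an anchor drug with five library-drug doses (not always all listed) in √10 steps. After 5 days, nuclei were stained in a one-step fixation (final 0.05% Triton X-100, 1% formaldehyde, 1 ug/ml Hoechst) and counted on 4× images, and relative viability is the treated-to-vehicle nuclei ratio, as the median of duplicate plates.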

Compound in the test “Sulindac + Dasatinib”: CC1=C(CC(=O)O)c2cc(F)ccc2/C1=C\c1ccc([S+](C)[O-])cc1 [Sulindac] + Cc1nc(Nc2ncc(C(=O)Nc3c(C)cccc3Cl)s2)cc(N2CCN(CCO)CC2)n1 [Dasatinib] (partner 0.075 µM)
In outline: as §1

Compound in the test “5-Fluorouracil + AZD7762”: O=c1[nH]cc(F)c(=O)[nH]1 [5-Fluorouracil] + NC(=O)Nc1cc(-c2cccc(F)c2)sc1C(=O)N[C@H]1CCCNC1 [AZD7762] (partner 0.2 µM)
The method in brief:
as §1

Compound in test [2]: CN[C@@H]1C[C@H]2O[C@@](C)([C@@H]1OC)n1c3ccccc3c3c4c(c5c6ccccc6n2c5c31)C(=O)NC4 [Staurosporine] + CC1(C)CCC(c2ccc(Cl)cc2)=C(CN2CCN(c3ccc(C(=O)NS(=O)(=O)c4ccc(N[C@H](CCN5CCOCC5)CSc5ccccc5)c(S(=O)(=O)C(F)(F)F)c4)cc3)CC2)C1 [Navitoclax] (partner 0.5 µM)
In outline:
as §1

Consider NCI-H2347, for which the relative viability in test [1] (first compound 0.005 µM) is 0.433; in test [1] (first compound 0.01581 µM) it was 0.398; in test [1] (first compound 0.05 µM) it was 0.331; in test [1] (first compound 0.1581 µM), 0.375; in test [1] (first compound 0.5 µM), 0.324; with Sulindac + Dasatinib (first compound 0.08 µM), 0.282. Moreover, the relative viability with Sulindac + Dasatinib (first compound 0.253 µM) came to 0.25; with Sulindac + Dasatinib (first compound 2.53 µM), 0.303; in the test with Sulindac + Dasatinib (first compound 8 µM), 0.275; in the test with 5-Fluorouracil + AZD7762 (first compound 0.02 µM), 0.63; in the test with 5-Fluorouracil + AZD7762 (first compound 0.2 µM), 0.45; in the test with 5-Fluorouracil + AZD7762 (first compound 0.6325 µM), 0.339. Also, the relative viability with 5-Fluorouracil + AZD7762 (first compound 2 µM) turned out to be 0.343; in test [2] (first compound 0.005 µM), 0.854; in test [2] (first compound 0.01581 µM), 0.524; in test [2] (first compound 0.05 µM), 0.274; in test [2] (first compound 0.1581 µM), 0.284; in test [2] (first compound 0.5 µM) it was 0.225.

As to NCI-H2405, the relative viability turned out to be 0.196 in test [1] (first compound 0.005 µM); 0.172 in test [1] (first compound 0.01581 µM); 0.122 in test [1] (first compound 0.05 µM); 0.0886 in test [1] (first compound 0.5 µM); 0.22 with Sulindac + Dasatinib (first compound 0.08 µM); 0.234 with Sulindac + Dasatinib (first compound 0.253 µM). Also, the relative viability is 0.331 in the test with Sulindac + Dasatinib (first compound 0.8 µM); 0.218 in the test with Sulindac + Dasatinib (first compound 2.53 µM); 0.228 in the test with Sulindac + Dasatinib (first compound 8 µM); 0.813 in the test with 5-Fluorouracil + AZD7762 (first compound 0.02 µM); 0.86 with 5-Fluorouracil + AZD7762 (first compound 0.2 µM); 0.684 with 5-Fluorouracil + AZD7762 (first compound 0.6325 µM). Moreover, the relative viability in the test with 5-Fluorouracil + AZD7762 (first compound 2 µM) is 0.494; in test [2] (first compound 0.005 µM), 0.132; in test [2] (first compound 0.01581 µM) it was 0.061; in test [2] (first compound 0.05 µM), 0.0985; in test [2] (first compound 0.1581 µM), 0.0939; in test [2] (first compound 0.5 µM) it was 0.0834.

Consider NCI-H3122, for which the relative viability came out at 0.248 in test [1] (first compound 0.005 µM); 0.225 in test [1] (first compound 0.05 µM); 0.171 in test [1] (first compound 0.5 µM); 0.79 with Sulindac + Dasatinib (first compound 0.08 µM); 0.825 with Sulindac + Dasatinib (first compound 0.253 µM); 0.74 in the test with Sulindac + Dasatinib (first compound 0.8 µM). Moreover, the relative viability with Sulindac + Dasatinib (first compound 2.53 µM) amounted to 0.705; with Sulindac + Dasatinib (first compound 8 µM) it was 0.894; with 5-Fluorouracil + AZD7762 (first compound 0.02 µM), 0.959; in the test with 5-Fluorouracil + AZD7762 (first compound 0.2 µM), 0.856; with 5-Fluorouracil + AZD7762 (first compound 0.6325 µM) it was 0.197; in the test with 5-Fluorouracil + AZD7762 (first compound 2 µM), 0.143. Besides, the relative viability was 1.04 in test [2] (first compound 0.005 µM); 0.46 in test [2] (first compound 0.01581 µM); 0.993 in test [2] (first compound 0.05 µM); 0.672 in test [2] (first compound 0.1581 µM); 0.223 in test [2] (first compound 0.5 µM).

On to PC-3 [JPC-3], for which the relative viability in test [1] (first compound 0.005 µM) is 0.563; in test [1] (first compound 0.01581 µM) it was 0.513; in test [1] (first compound 0.05 µM) it was 0.398; in test [1] (first compound 0.1581 µM), 0.398; in test [1] (first compound 0.5 µM), 0.343; with Sulindac + Dasatinib (first compound 0.08 µM) it was 0.878. Also, the relative viability amounted to 1.05 in the test with Sulindac + Dasatinib (first compound 0.253 µM); 0.772 with Sulindac + Dasatinib (first compound 0.8 µM); 1.02 with Sulindac + Dasatinib (first compound 2.53 µM); 1.04 with Sulindac + Dasatinib (first compound 8 µM); 0.815 with 5-Fluorouracil + AZD7762 (first compound 0.02 µM); 0.855 with 5-Fluorouracil + AZD7762 (first compound 0.2 µM). Moreover, the relative viability came to 0.908 with 5-Fluorouracil + AZD7762 (first compound 0.6325 µM); 0.816 with 5-Fluorouracil + AZD7762 (first compound 2 µM); 0.933 in test [2] (first compound 0.005 µM); 0.552 in test [2] (first compound 0.05 µM); 0.485 in test [2] (first compound 0.1581 µM); 0.406 in test [2] (first compound 0.5 µM).

In the case of PC-14, the relative viability amounted to 0.174 in test [1] (first compound 0.005 µM); 0.077 in test [1] (first compound 0.01581 µM); 0.0379 in test [1] (first compound 0.05 µM); 0.0411 in test [1] (first compound 0.1581 µM); 0.0434 in test [1] (first compound 0.5 µM); 0.25 with Sulindac + Dasatinib (first compound 0.08 µM). Besides, the relative viability with Sulindac + Dasatinib (first compound 0.253 µM) was determined as 0.293; with Sulindac + Dasatinib (first compound 2.53 µM), 0.222; with Sulindac + Dasatinib (first compound 8 µM), 0.369; with 5-Fluorouracil + AZD7762 (first compound 0.02 µM), 0.361; in the test with 5-Fluorouracil + AZD7762 (first compound 0.2 µM) it was 0.431; in the test with 5-Fluorouracil + AZD7762 (first compound 0.6325 µM), 0.389. Besides, the relative viability with 5-Fluorouracil + AZD7762 (first compound 2 µM) was 0.278; in test [2] (first compound 0.005 µM) it was 0.901; in test [2] (first compound 0.01581 µM) it was 0.562; in test [2] (first compound 0.05 µM) it was 0.887; in test [2] (first compound 0.1581 µM), 0.0852; in test [2] (first compound 0.5 µM), 0.053.

Take RERF-LC-KJ: the relative viability in test [1] (first compound 0.005 µM) was 0.914; in test [1] (first compound 0.01581 µM) it was 0.916; in test [1] (first compound 0.05 µM) it was 0.475; in test [1] (first compound 0.1581 µM) it was 0.4; in test [1] (first compound 0.5 µM), 0.26; with Sulindac + Dasatinib (first compound 0.08 µM) it was 1.03. Moreover, the relative viability in the test with Sulindac + Dasatinib (first compound 0.253 µM) worked out at 0.973; with Sulindac + Dasatinib (first compound 0.8 µM), 0.692; with Sulindac + Dasatinib (first compound 2.53 µM), 0.802; with Sulindac + Dasatinib (first compound 8 µM), 0.838; in the test with 5-Fluorouracil + AZD7762 (first compound 0.02 µM), 0.973; in the test with 5-Fluorouracil + AZD7762 (first compound 0.6325 µM), 0.948. For the same cell line, the relative viability with 5-Fluorouracil + AZD7762 (first compound 2 µM) was 0.893; in test [2] (first compound 0.005 µM), 1.14; in test [2] (first compound 0.01581 µM) it was 0.665; in test [2] (first compound 0.05 µM) it was 0.479; in test [2] (first compound 0.1581 µM), 0.244; in test [2] (first compound 0.5 µM), 0.236.
